Reference: patent US10752933B2, “Methods for the identification, characterization, and use of inhibitors of the fructose-asparagine utilization pathway” (priority 2015, dated 2020)
Entries after “also recorded” stand apart in the source; their conditions may differ.

Columns and labels:
Format in all cases: cell-based, Salmonella enterica serovar Typhimurium
[1] = test system: ΔfraB::kan (HMB206) fraB mutant; experiment: Growth inhibition of fraB mutant by F-Asn in M9 glucose medium (IC50, IC90, MBC)
Procedure: (§1) FIG. 25 reflects the determination of the IC50 and IC90 of F-Asn to a fraB mutant. Wild-type (strain 14028, ●), ΔfraB::kan (HMB206, □) or Δfra island (HMB205, ▴) were grown in M9 minimal medium containing 5 mM glucose and varying concentrations of F-Asn. The data points represent the optical density obtained after 15 hours of growth at 37° C.
(§2) Growth curves were performed using clear, flat-bottom, 96-well plates. Minimal media with the specified carbon source were prepared and overnight cultures were washed twice with sterile water. In each well, 198-μl aliquots of media were inoculated with 2 μl of washed overnight cultures. A Breathe-Easy membrane film (Diversified Biotech) was placed over each 96-well plate. Growth over 18 hr at 37° C. was measured using hourly OD600 measurements in a SpectraMax M5 (Molecular Devices) Microplate Reader and SoftMax Pro 6.1 software.
(§3) To determine if F-Asn was bacteriostatic or bactericidal to the fraB mutant, the 50% and 90% inhibitory concentration (IC50 and IC90) and the minimum bactericidal concentration (MBC) were characterized. The IC50 and IC90 were determined by adding increasing concentrations of F-Asn to M9 minimal medium containing glucose as the carbon source. Growth of the fraB mutant was then monitored in these media. […] To determine the MBC, a small aliquot of these same cultures was dilution-plated onto LB agar.

[2] = test system: Wild-type (strain 14028); experiment: Growth inhibition by F-Asn in M9 glucose medium, wild-type; settings: M9 minimal medium with glucose and F-Asn
Procedure: as §1, §2, §3

[3] = test system: Δfra island (HMB205); experiment: Growth inhibition by F-Asn in M9 glucose medium, fra island mutant; settings: M9 minimal medium with glucose and F-Asn
Procedure: as §1, §2, §3

[4] = test system: wild-type MA43 Salmonella; experiment: Growth of Salmonella on Amadori products as sole carbon source; settings: NCE minimal medium, carbon source at 5 mM, 37° C.
Procedure: FIG. 2A to FIG. 2E are graphs showing growth of wild-type and fraB1::kan mutant Salmonella on Amadori products. Growth of wild-type MA43 and fraB1::kan mutant MA59 on F-Asn (FIG. 2A), F-Arg (FIG. 2B), F-Lys (FIG. 2C), asparagine, arginine, lysine, or glucose (FIG. 2D). Bacteria were grown overnight in Luria Bertani (LB) broth at 37° C. with shaking, centrifuged, resuspended in water, and subcultured 1:1000 into minimal “no carbon E” (NCE) medium (containing trace metals) and the indicated carbon source at 5 mM. The optical density at 600 nm was then read at time points during growth at 37° C. with shaking. Controls included NCE with no carbon source, and NCE with glucose that was not inoculated, as a sterility control (FIG. 2D). FIG. 2E is a graph showing complementation of a fraB1::kan mutation with plasmid pASD5006 encoding the fra island (ASD6000) or the vector control, pWSK29 (ASD6010). Each point represents the mean of three cultures with error bars indicating standard deviation. FIG. 2A to FIG. 2C: ● wild-type; ◯ fraB mutant; FIG. 2D: ● Glucose wild-type; ◯ Glucose fraB mutant; □ No carbon source; ● Sterility; ⋄ Asn wild-type; * Arg wild-type; × Lys wild type; FIG. 2E: ◯ Glucose fraB mutant+pASD5006; ● Glucose fraB mutant+vector; ▪ F-Asn fraB mutant+pASD5006; F-Asn fraB mutant+vector; y-axis: OD600; x-axis: time (hours).
Amadori products most often result from a spontaneous reaction between a carbonyl group (often of glucose, although numerous other compounds can also react) and an amino group of an amino acid in vivo, and are then referred to as non-enzymatic glycation products. Zhang et al., 8 J. Proteome. Res. 754 (2009); Tessier, 58 Pathol. Biol. 214 (2010). With F-Lys and fructose-arginine (F-Arg) this can happen with the free amino acid, or the side groups of the lysine and arginine residues of a protein. In contrast, fructose-asparagine (F-Asn) can only result from reaction of glucose with the alpha amino group of free asparagine or the N-terminal asparagine of a protein. […]

[5] = test system: wild-type MA43 Salmonella; experiment: Growth with F-Asn under aerobic and anaerobic conditions with or without tetrathionate; settings: 5 mM F-Asn
Procedure: FIG. 4A to FIG. 4D show growth of Salmonella on F-Asn in the presence or absence of tetrathionate or oxygen. Growth of wild-type MA43 and fraB1::kan mutant MA59 on 5 mM F-Asn or 5 mM glucose anaerobically (FIG. 4A and FIG. 4B) or aerobically (FIG. 4C and FIG. 4D) in the presence (FIG. 4A and FIG. 4C) or absence (FIG. 4B and FIG. 4D) of 40 mM tetrathionate (S406 22). Bacteria were grown overnight in LB at 37° C. shaking, centrifuged, resuspended in water, and subcultured 1:1000 into NCE medium containing the indicated carbon source. The optical density at 600 nm was then read at time points during growth at 37° C. with shaking. Each point represents the mean of four cultures with error bars indicating standard deviation. ● F-Asn wild-type; ▪ F-Asn fraB mutant; ▴ Glucose wild-type; ▾ Glucose fraB mutant; x-axis: time (hours); y-axis: OD600.
Growth with F-Asn was tested under aerobic and anaerobic conditions in the presence or absence of the terminal electron acceptor tetrathionate (FIG. 4A to FIG. 4D). […] Competition experiments in which the wild-type and fraB1::kan mutant were grown in the same culture were performed in minimal medium containing F-Asn. As expected, the mutant was severely attenuated during aerobic and anaerobic growth, and in the presence or absence of tetrathionate (FIG. 5). Indeed, the attenuation was most severe during anaerobic growth in the presence of tetrathionate.

Molecule | IC50 ([1]; Salmonella enterica, M9 minimal medium, 5 mM glucose, varying F-Asn, optical density after 15 hours at 37° C., 95% confidence interval 9 to 40 μM) [µM] | IC90 ([1]; Salmonella enterica, M9 minimal medium, 5 mM glucose, varying F-Asn, optical density after 15 hours at 37° C., 95% confidence interval 82 to 368 μM) [µM] | minimum bactericidal concentration (MBC) ([1]; aliquot of IC50 cultures dilution-plated onto LB agar, up to highest F-Asn concentrations tested) | bacteriostatic or bactericidal to the fraB mutant ([1]; in vitro, cultures dilution-plated onto LB agar) | inhibitory to growth [2] | inhibitory to growth [3] | growth on Amadori product as sole carbon source [4] | Salmonella doubling time on F-Asn ([5]; aerobically with tetrathionate) [h] | Salmonella doubling time on F-Asn ([5]; aerobically without tetrathionate) [h] | Salmonella doubling time on F-Asn ([5]; anaerobically with tetrathionate) [h] | Salmonella doubling time on F-Asn ([5]; anaerobically without tetrathionate) [h]
NC(=O)C[C@@H](NCC1(O)OC[C@@H](O)[C@@H](O)[C@@H]1O)C(=O)O (stereo partly drawn) [F-Asn, (2R)-4-amino-4-oxo-2-[[(3S,4R,5R)-2,3,4,5-tetrahydroxyoxan-2-yl]methylamino]butanoic acid] | 19 | 174 | no MBC was revealed | bacteriostatic; also recorded: bacteriostatic, not bactericidal | not | not | grew as well on F-Asn as on glucose | 1.6 ± 0.1 | 2.0 ± 0.3 | 1.9 ± 0.1 | 2.9 ± 0.4
fructose-arginine [F-Arg] |  |  |  |  |  |  | unable to grow |  |  |  | 
fructose-lysine [F-Lys] |  |  |  |  |  |  | grew slowly and with low yield |  |  |  | 
